The values that follow come from patent US20100190832A1, “Mechanism-based inhibitors of transthyretin amyloidosis: studies with biphenyl ethers and structural templates” (NATIONAL INSTITUTE OF IMMUNOLOGY., priority 2008, published 2010).

Where two headings read alike, the source gives them in different places.

One test deals with T1, WT-TTR (Homo sapiens, UniProt P02766).
T1 construct: made in house
Nature of the test: Stagnant acid-mediated TTR aggregation (fibril formation) assay, turbidity at 340 nm. As to conditions: for remaining activity at 100 µM / inhibition at 100 µM: pH 4.4, compound 100 μM; for remaining activity at 100 µM / inhibition at 100 µM / remaining activity at 50 µM: WT-TTR 7.2 μM; for remaining activity at 100 µM: read-out: % FF; for inhibition at 100 µM: read-out: % Inhibition; for remaining activity at 50 µM: biphenyl ether 50 μM, read-out: % FF at 50 μM. The format is biochemical. The protocol: Stagnant Acid-Mediated TTR Aggregation Assay.
After 1 h, the samples were diluted with 0.5 ml of 200 mM sodium acetate buffer containing 100 mM KCl and 1 mM EDTA. Samples after mild vortexing were incubated at 37° C. for the desired amount of time without stirring to evaluate the efficacy of the inhibitors. The extent of aggregation was probed by turbidity measurements at 340 nm using Tecan GENios microplate reader. […] The extent of TTR fibril formation in the absence of inhibitor was defined to be 100%. […] All experiments were done in triplicate. […] The IC50 was determined by plotting mean of % inhibition vs log and fitted to sigmoid equation:
(§1) The experiments were conducted at 25° C. After 1 h, the samples were diluted with 0.5 mL of 200 mM sodium acetate buffer pH 4.4 containing 100 mM KCl and 1 mM EDTA, vortexed, and incubated at 37° C. for 72 h. […] The stoichiometry of the binding of the inhibitors was determined by HPLC as described by Green et al., N. S. Palaninathan, S, L, Sacchettini, J. e. […] Dissociation constant of binding of these compounds to TTR was determined by fluorescence titration, and data were fitted into the Adair equation for two bind mg.

Test [1] has as its target T2, TTR (Homo sapiens, UniProt P02766).
T2 construct: made in house
Nature of the test: Time course (kinetics) of fibril formation, turbidity at 340 nm for 3 h. The format is biochemical. The note with it: TTR 7.2 μM, inhibitor 21.6 μM, 37° C., pH 4.4, 3 h. The method, then: Time Course of Fibril Formation. The kinetics of inhibition was studied by incubating […] TTR with […] of different inhibitors in 100 µl of 5 mM phosphate buffer pH 7.2 for 30 min in a 96 microwell plate. […] of 0.2 M sodium acetate buffer pH 4.4 containing 1 mM EDTA and 100 mM KCl was added. The difference in turbidity was assessed by measuring the change in absorbance at 340 nm on Tecan GEnios microplate reader using Magellan software. For kinetics, parameters were set for 30 cycles at 37° C. at the interval of 5 min each and 2 min orbital shaking (low speed) between cycles and 10 sec shaking (normal speed) before measurement. All experiments were performed in triplicates. Change in absorbance at 340 nm was plotted against time in the presence and absence of inhibitors initial rate of fibril formation was calculated from the slope by linear fitting of the data.
All experiments were performed three times in triplicates. Change in absorbance (mean of three different experiments) at 340 nm was plotted against time in the presence and absence of inhibitors. Initial rate of fibril form action was calculated from the value of the slope by linear fitting of the change in absorbance at 340 nm as a function of time.

The target in a further test is T3, TTR fibers (Homo sapiens, UniProt P02766).
T3 construct: made in house
Briefly: Fibril disruption assay. The format is biochemical. The note with it: three doses (7.2 μM each), 15 days, Th-T fluorescence. The protocol:
Fibril Disruption Assay. […] The disruption was followed for 7 days by turbidity measurements at 340 nm and Th-T fluorescence. A second dose of the inhibitor (7.2 μM) was added after 24 h of incubation, and samples were incubated and monitored further for 5-6 days. After 15-20 days of incubation, samples were examined by transmission electron microscopy (TEM). All experiments were done thrice in triplicates each time.

The target of test [2] is T2, TTR. Nature of the test: Dissociation constant by fluorescence titration (Adair equation, two sites). Type of test: binding. The note with it: pH 4.4; read-out: Dissociation Constant Kd1. The method, then: as §1
Small aliquots of 1 mM ligands solutions were successively added to the […] in 100 mM sodium acetate buffer pH 4.4 at […] under constant stirring. After each addition sample was left for 2 min. […] Readings were corrected for buffer blank, dilution and inner filter effect. The inner filter effect was corrected by using the following equation,
From the titration data the dissociation constant was determined by fitting data in following Adair equation for two binding sites-

Take `CCc1ccccc1NC(=S)N(CCN(C)C)Cc1cccs1` [Compound C087-0905]: on WT-TTR (72 h, pH 4.4, 37° C.), the remaining activity at 100 µM came to 108%. Further, the inhibition at 100 µM on WT-TTR (pH 4.4, 37° C.) came out at 0%.
In the case of `NC(=O)CSc1ncc(-c2ccc(Cl)cc2)[nH]1` [Compound C290-0041], the remaining activity at 100 µM on WT-TTR (72 h, pH 4.4, 37° C.) is 39.2%. The inhibition at 100 µM on WT-TTR (pH 4.4, 37° C.) came out at 60.8%.
The corresponding values for `Nc1nc(Cl)cc(Oc2ccccc2F)n1` [Compound 1545-0131] are 52.4% and 47.6%.
Regarding `O=C1/C(=C\c2ccco2)SC(=S)N1c1cccc(F)c1` [Compound 2027-0159], at WT-TTR (72 h, pH 4.4, 37° C.), the remaining activity at 100 µM worked out at 340%. Also, the inhibition at 100 µM at WT-TTR (pH 4.4, 37° C.) came out at 0%.
With `CCCCN1CCc2nc3c(ccc4ccccc43)c(O)c2C1` [Compound 3453-1352], the remaining activity at 100 µM at WT-TTR (72 h, pH 4.4, 37° C.) was 75.7%. For the same compound, on WT-TTR (pH 4.4, 37° C.), the inhibition at 100 µM came out at 24.3%.
With `Cn1ncc(/N=C/c2ccccc2O)c1C(=O)N1CCOCC1` [Compound 2019-0006], on WT-TTR (72 h, pH 4.4, 37° C.), the remaining activity at 100 µM was 50%. For the same compound, the inhibition at 100 µM on WT-TTR (pH 4.4, 37° C.) was 50%.
Consider `COc1cc(C=O)ccc1Oc1ccccc1` [Compound 9], for which the inhibition at 21.6 µM against TTR [1] was more than 80%. Moreover, at TTR fibers, the “disruption of preformed TTR fibers” value is recorded as “more effective”. Also, the Kd at TTR [2] turned out to be 0.088 ± 0.0101 µM. Further, the half-inhibitory concentration (IC50) at WT-TTR (50% reduction in fibril formation, TTR 7.2 μM, pH 4.4, read-out: IC50 ± SE) is 1.31 ± 0.08 µM; at WT-TTR (TTR amyloid formation, 37° C., read-out: IC50) it was 0.47 to 3.5 µM; on WT-TTR (Table 3, WT-TTR 7.2 μM, read-out: IC50) it was 1.31 µM. Further, the remaining activity at 50 µM at WT-TTR (72 h) is 0%. For the same compound, on WT-TTR (72 h, pH 4.4, TTR 7.2 μM, inhibitor 7.2 μM (1:1), pH 4.4, 37° C., no inhibitor = 100%, read-out: % FF 1:1), the remaining activity at 7.2 µM came out at 12%. Further, the remaining activity at 21.6 µM on WT-TTR (72 h, pH 4.4, TTR 7.2 μM, inhibitor 21.6 μM (1:3), pH 4.4, 37° C., no inhibitor = 100%, read-out: % FF 1:3) came to 0%.
As to `Clc1ccc2nc(-c3ccc(Cl)s3)c(NC3CCCCC3)n2c1` [Compound C273-0206], the remaining activity at 100 µM on WT-TTR (72 h, pH 4.4, 37° C.) worked out at 138%. Also, at WT-TTR (pH 4.4, 37° C.), the inhibition at 100 µM is 0%.
For the compound `COc1cc(COC(C)=O)ccc1Oc1ccc([N+](=O)[O-])cc1[N+](=O)[O-]` [Compound 20], on WT-TTR (72 h), the remaining activity at 50 µM was 69%.
Take `CCOC(=O)c1c(N)sc(C(=O)Nc2cc(C)cc(C)c2)c1C` [Compound R052-1596]: at WT-TTR (72 h, pH 4.4, 37° C.), the remaining activity at 100 µM was determined as 87.8%. Moreover, the inhibition at 100 µM on WT-TTR (pH 4.4, 37° C.) was determined as 12.2%.
Regarding `O=c1c2ccccc2nc2sc(Nc3ccc(F)cc3F)nn12` [Compound K284-2958], at WT-TTR (72 h, pH 4.4, 37° C.), the remaining activity at 100 µM is -2.03%. In addition, the inhibition at 100 µM on WT-TTR (pH 4.4, 37° C.) was determined as 102%.
Take `O=C(c1cnc(Nc2ccc(F)cc2)c2ccccc12)n1ccnc1` [Compound C066-1627]: on WT-TTR (pH 4.4, 37° C.), the inhibition at 100 µM was 0%.
